Laboratory results taken from publication PMC5806882, “Structural and biochemical characterization of the biuret hydrolase (BiuH) from the cyanuric acid catabolism pathway of Rhizobium leguminasorum bv. viciae 3841” (PLoS ONE, 2018).

Target: biuret hydrolase (BiuH) (Rhizobium johnstonii, UniProt Q1M7F4, C175S)
Assay: X-ray crystal structure, […] Å
Type: binding

Sequence of biuret hydrolase (BiuH) (Q1M7F4 whole entry C175S): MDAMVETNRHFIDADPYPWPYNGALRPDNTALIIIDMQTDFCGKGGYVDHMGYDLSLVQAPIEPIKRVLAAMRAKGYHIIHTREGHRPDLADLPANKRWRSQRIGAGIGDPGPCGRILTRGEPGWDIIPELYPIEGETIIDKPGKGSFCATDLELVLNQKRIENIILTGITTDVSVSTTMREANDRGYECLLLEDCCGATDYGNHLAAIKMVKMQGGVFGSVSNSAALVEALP

NC(=O)NC(N)=O [biuret]
X-ray crystal structure, 2.22 Å: A structure of the inactive Cys175Ser variant with biuret in the active site was obtained (PDB ID: 6AZQ).
